Test results taken from US11230547B2, “Purine inhibitors of human phosphatidylinositol 3-kinase delta” (Merck Sharp & Dohme Corp., priority 2017, dated 2022).

How the values were obtained:
[1] = target: PI3Kdelta (Homo sapiens (Human), UniProt O00329); assay: HTRF PI3K biochemical assay, delta isoform; settings: 0.3 nM enzyme, 100 uM ATP, 5 uM PIP2, form screened per table
Excerpt: (§1) HTRF PI3K Biochemical Assay to Measure Intrinsic Potency of Compound Inhibitors
(§2) The PI3-Kinase biochemical assays were developed to measure the intrinsic potency and compound dependent inhibition of the alpha, beta, delta, and gamma PI3K isoform enzymes. This assay was developed and further optimized from a kit produced by Upstate (Millipore catalog #33-047) (Millipore Sigma, Billerica Mass., USA) and has been configured for high throughput screening (HTS) and structure-activity relationship (SAR) screening. Briefly, this procedure exploits the exquisite specificity and high affinity binding of […] phosphatidyl(3,4,5)triphosphate (PIP3) to the GRP1 pleckstrin homology (PH) domain to generate the signal. In the absence of PIP3, an HTRF (Homogeneous Time-Resolved Fluorescence energy transfer) complex is formed consisting of europium (u)-labeled anti-GST, GST tagged GRP1-PH domain, biotin-PIP3 (biotinylated-PIP3) and streptavidin conjugated APC (Allophycocyanin). The native PIP3 produced by PI3-Kinase activity disrupts in a competitive manner the biotin-PIP3 from the pleckstrin homology (PH) domain, resulting in the loss of energy transfer (HTRF complex) and a decrease in the signal. The format of this assay is the same for all 4 isoforms of PI3K; the differences lie in the concentration of enzyme used to achieve robust assay window. The alpha, beta, and delta assays are run at 0.5, 1, and 0.3 nM enzymes and the gamma assay is run at 5 nM enzyme. The ATP concentration is 100 uM in the alpha, beta, and delta assays and 50 uM adenosine triphosphate (ATP) in the gamma assay. All reactions are run at 5 uM PIP2.
(§3) Compounds are serially diluted (3-fold in 100% DMSO) across a 384-well polypropylene source plated from column 3 to column 12 and column 13 to column 22, to yield 10 concentration dose response for each test compound. Columns 1, 2, 23 and 24 contain either only DMSO or pharmacological known control inhibitor. Once titrations are made, 2.5 nL of the compounds on 384 well plates are reformatted and transferred by acoustic dispense in quadruplicates to a 1536 assay plate (Greiner) to assay across all four PI3K isoform enzymes.
(§4) The PI3-Kinase biochemical assay was optimized using the HTRF kit provided by Upstate (Millipore). The assay kit contains six reagents: 1) 4× Reaction Buffer; 2) native PIP2 (substrate); 3) Stop (EDTA); 4) Detection Mix A (Streptavidin-APC); 5) Detection Mix B (Eu-labeled Anti-GST plus GST-tagged PH-domain); 6) Detection Mix C. In addition, the following items were obtained or purchased; PI3Kinase (catalog #'s alpha 14-602, beta 14-603, gamma 14-558 and delta 14-604 from Upstate Biotechnology now EMD Millipore, Mahopac, N.Y., USA), dithiothreitol (Sigma-Aldrich Corp. (St. Louis, Mo., USA) Catalog #D-5545), Adenosine-5′ triphosphate (InVitrogen (Waltham, Mass., USA), Cat#AS001A), native PIP3 (PI(3,4,5)P3, diC8, H^+, CELLSIGNALS, INC., (Columbus, Ohio, USA) Cat #907) DMSO ((Sigma-Aldrich Corp. (St. Louis, Mo., USA) Catalog #472301).
(§5) PI3Kinase Reaction Buffer is prepared by dilution the stock 1:4 with de-ionized water. DTT (DL-Dithiothreitol), phosphatidylinositol 4,5-bisphosphate (PIP2) and Biotin-PIP3 were added to 1536 assay plate at a final concentration of 5 mM, […] and 25 nM on the day of use. Enzyme addition and compound pre-incubation are initiated by the addition of 1.25 ul of PI3K (at twice its final concentration) in the 1× reaction buffer to all wells using a BioRaptr™ (Beckman Coulter, Waltham, Mass. USA). Plates are incubated at room temperature for 15 minutes. Reactions are initiated by addition of 1.25 ul of 2× substrate solution (PIP2 and ATP in 1× reaction buffer) using BioRaptr™. Plates are incubated in humidified chamber at room temperature for one hour. Reactions are quenched by addition of 0.625 uL of stop solution to all wells using the BioRaptr™. […]

[2] = target: PI3Kalpha (Homo sapiens (Human), UniProt P42336); assay: HTRF PI3K biochemical assay, alpha isoform (selectivity versus delta); settings: relative ratio PI3K-alpha IC50 value / PI3K-delta IC50 value
Sequence of PI3Kalpha (P42336 whole entry, canonical isoform): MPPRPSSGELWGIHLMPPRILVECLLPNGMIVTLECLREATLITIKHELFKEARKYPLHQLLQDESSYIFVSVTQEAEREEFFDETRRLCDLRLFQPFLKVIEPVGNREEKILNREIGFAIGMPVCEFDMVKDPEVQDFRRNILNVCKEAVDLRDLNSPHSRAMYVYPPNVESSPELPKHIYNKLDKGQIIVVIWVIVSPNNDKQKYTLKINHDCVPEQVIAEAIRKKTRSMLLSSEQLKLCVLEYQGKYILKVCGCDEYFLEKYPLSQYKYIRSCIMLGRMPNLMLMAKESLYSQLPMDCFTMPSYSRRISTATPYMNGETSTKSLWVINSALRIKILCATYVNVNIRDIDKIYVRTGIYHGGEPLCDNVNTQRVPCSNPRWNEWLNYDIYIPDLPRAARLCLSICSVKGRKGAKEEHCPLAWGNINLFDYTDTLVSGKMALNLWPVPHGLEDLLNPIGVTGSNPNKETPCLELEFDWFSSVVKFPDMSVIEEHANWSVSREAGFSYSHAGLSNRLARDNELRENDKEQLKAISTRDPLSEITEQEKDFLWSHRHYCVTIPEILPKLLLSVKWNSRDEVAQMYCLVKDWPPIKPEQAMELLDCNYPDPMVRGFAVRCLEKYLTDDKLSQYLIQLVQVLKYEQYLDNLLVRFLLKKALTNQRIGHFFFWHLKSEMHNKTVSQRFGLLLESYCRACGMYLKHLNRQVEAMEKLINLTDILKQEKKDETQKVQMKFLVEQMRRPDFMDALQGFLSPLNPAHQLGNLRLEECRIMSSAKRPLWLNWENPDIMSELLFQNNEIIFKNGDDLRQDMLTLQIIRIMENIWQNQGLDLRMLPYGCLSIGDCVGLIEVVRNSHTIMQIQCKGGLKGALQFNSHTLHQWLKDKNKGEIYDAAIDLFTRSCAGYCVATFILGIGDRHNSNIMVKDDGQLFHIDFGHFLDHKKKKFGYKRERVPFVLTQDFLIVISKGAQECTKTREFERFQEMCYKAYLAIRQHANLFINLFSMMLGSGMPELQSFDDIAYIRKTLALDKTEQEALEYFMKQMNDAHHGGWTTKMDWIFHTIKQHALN
Sequence of PI3Kalpha (P27986 whole entry partner, canonical isoform): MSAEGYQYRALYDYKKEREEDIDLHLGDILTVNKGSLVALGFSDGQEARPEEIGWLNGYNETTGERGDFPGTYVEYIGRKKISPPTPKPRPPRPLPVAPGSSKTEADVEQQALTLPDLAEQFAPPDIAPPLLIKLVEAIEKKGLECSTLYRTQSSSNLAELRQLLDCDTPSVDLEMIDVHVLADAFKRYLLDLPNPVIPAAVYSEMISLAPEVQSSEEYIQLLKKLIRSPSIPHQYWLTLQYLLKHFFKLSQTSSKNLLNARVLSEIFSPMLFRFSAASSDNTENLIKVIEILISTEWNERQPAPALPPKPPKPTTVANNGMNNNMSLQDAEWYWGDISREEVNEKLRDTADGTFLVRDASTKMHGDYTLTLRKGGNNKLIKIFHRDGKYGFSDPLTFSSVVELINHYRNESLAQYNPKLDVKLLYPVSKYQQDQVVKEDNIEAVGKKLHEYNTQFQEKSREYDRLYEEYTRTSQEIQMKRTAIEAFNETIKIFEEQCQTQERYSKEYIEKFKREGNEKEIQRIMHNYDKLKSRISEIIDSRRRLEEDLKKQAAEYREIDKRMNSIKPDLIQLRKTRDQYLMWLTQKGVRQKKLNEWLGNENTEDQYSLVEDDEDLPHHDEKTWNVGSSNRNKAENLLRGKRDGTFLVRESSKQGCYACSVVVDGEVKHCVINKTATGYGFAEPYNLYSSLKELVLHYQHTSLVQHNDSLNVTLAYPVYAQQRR
Excerpt: as §1, §2, §3, §4, §5

Sequence of PI3Kdelta (O00329 whole entry, canonical isoform): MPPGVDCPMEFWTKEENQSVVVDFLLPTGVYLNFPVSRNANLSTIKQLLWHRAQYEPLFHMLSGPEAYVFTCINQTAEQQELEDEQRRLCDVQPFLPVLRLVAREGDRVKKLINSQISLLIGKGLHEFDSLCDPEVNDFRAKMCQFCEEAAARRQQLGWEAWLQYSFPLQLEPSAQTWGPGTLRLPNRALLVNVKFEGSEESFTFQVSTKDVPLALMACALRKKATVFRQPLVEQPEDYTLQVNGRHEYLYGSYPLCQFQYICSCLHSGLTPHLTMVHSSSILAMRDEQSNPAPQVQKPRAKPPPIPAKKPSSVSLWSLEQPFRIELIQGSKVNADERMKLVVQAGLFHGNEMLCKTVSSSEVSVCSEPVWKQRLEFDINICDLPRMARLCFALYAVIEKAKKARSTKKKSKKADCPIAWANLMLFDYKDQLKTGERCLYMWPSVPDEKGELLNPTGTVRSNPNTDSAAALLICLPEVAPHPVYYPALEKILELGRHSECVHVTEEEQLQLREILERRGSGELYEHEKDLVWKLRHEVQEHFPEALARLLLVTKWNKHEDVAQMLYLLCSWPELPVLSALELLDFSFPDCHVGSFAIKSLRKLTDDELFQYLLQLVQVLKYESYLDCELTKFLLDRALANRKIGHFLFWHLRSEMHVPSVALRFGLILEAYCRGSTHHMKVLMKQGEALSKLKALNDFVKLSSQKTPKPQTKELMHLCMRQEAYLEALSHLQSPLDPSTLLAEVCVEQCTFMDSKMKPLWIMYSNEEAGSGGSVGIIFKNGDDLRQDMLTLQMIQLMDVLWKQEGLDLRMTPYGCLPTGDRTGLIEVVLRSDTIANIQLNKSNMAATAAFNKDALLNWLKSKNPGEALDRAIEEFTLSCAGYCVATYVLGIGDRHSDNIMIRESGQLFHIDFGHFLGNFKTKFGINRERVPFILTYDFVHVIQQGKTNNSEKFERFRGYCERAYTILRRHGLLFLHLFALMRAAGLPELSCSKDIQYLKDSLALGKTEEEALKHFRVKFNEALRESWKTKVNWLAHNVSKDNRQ
Sequence of PI3Kdelta (P27986 whole entry partner, canonical isoform): as the sequence (P27986 whole entry partner, canonical isoform) above

SMILES	IC50 [1] [nM]	Selectivity versus PI3Kalpha [2]
Cn1cc(-c2ncc(C#N)c(N3CC4C[C@H]3CN4c3ccc(C(F)F)nc3)n2)cn1 (stereo in doubt) [Compound 1-4, 4-{(1S,4R)-5-[6-(difluoromethyl)pyridin-3-yl]-2,5-diazabicyclo[2.2.1]hept-2-yl}-2-(1-methyl-1H-pyrazol-4-yl)pyrimidine-5-carbonitrile]	540	>10
Cn1cc(-c2ncc(C#N)c(N3CC4C[C@H]3CN4c3cccc(C(C)(C)O)c3)n2)cn1 (stereo in doubt) [Compound 1-5, 4-{(1S,4R)-5-[3-(1-hydroxy-1-methylethyl)phenyl]-2,5-diazabicyclo[2.2.1]hept-2-yl}-2-(1-methyl-1H-pyrazol-4-yl)pyrimidine-5-carbonitrile]	220	>10
Cn1cc(-c2ncc(C#N)c(N3CC4C[C@H]3CN4c3cccnc3)n2)cn1 (stereo in doubt) [Compound 1-6, 2-(1-methyl-1H-pyrazol-4-yl)-4-[(1S,4R)-5-pyridin-3-yl-2,5-diazabicyclo[2.2.1]hept-2-yl]pyrimidine-5-carbonitrile]	110	>10
Cn1cc(-c2ncc(C#N)c(N3CC4C[C@H]3CN4c3cccc(OCCF)c3)n2)cn1 (stereo in doubt) [Compound 1-8, 4-{(1S,4R)-5-[3-(2-fluoroethoxy)phenyl]-2,5-diazabicyclo[2.2.1]hept-2-yl}-2-(1-methyl-1H-pyrazol-4-yl)pyrimidine-5-carbonitrile]	79	>10
Cn1cc(-c2ncc(C#N)c(N3CC4C[C@H]3CN4c3cccc([N+](=O)[O-])c3)n2)cn1 (stereo in doubt) [Compound 1-10, 2-(1-methyl-1H-pyrazol-4-yl)-4-[(1S,4R)-5-(3-nitrophenyl)-2,5-diazabicyclo[2.2.1]hept-2-yl]pyrimidine-5-carbonitrile]	–	>10
Cn1cc(-c2ncc(C#N)c(N3CC4C[C@H]3CN4c3cccc(C4(C)CC4)c3)n2)cn1 (stereo in doubt) [Compound 1-12, 4-{(1S,4R)-5-[3-(1-methylcyclopropyl)phenyl]-2,5-diazabicyclo[2.2.1]hept-2-yl}-2-(1-methyl-1H-pyrazol-4-yl)pyrimidine-5-carbonitrile]	410	>10
Cn1cc(-c2ncc(C#N)c(N3CC4C[C@H]3CN4c3cccc(S(C)(=O)=O)c3)n2)cn1 (stereo in doubt) [Compound 1-15, 2-(1-methyl-1H-pyrazol-4-yl)-4-{(1S,4R)-5-[3-(methylsulfonyl)phenyl]-2,5-diazabicyclo[2.2.1]hept-2-yl}pyrimidine-5-carbonitrile]	27	>10
Cn1cc(-c2ncc(C#N)c(N3C[C@H]4C[C@H]3CN4c3cccc([N+](=O)[O-])c3)n2)cn1 [Compound 1-10, 2-(1-methyl-1H-pyrazol-4-yl)-4-[(1S,4R)-5-(3-nitrophenyl)-2,5-diazabicyclo[2.2.1]hept-2-yl]pyrimidine-5-carbonitrile]	38	–

Second part, the molecule after the results:

IC50 [1] [nM]	Selectivity versus PI3Kalpha [2]	SMILES
69	>10	Cn1cc(-c2ncc(C#N)c(N3CC4C[C@H]3CN4c3cccc(C#N)c3)n2)cn1 (stereo in doubt) [Compound 1-1, 4-[(1S,4R)-5-(3-cyanophenyl)-2,5-diazabicyclo[2.2.1]hept-2-yl]-2-(1-methyl-1H-pyrazol-4-yl)pyrimidine-5-carbonitrile]
51	>10	N#Cc1cnc(-c2cnn3ccccc23)nc1N1C[C@@H]2CC1CN2c1cccc(F)c1 (stereo in doubt) [Compound 1-2, 4-[(1R,4S)-5-(3-fluorophenyl)-2,5-diazabicyclo[2.2.1]hept-2-yl]-2-pyrazolo[1,5-a]pyridin-3-ylpyrimidine-5-carbonitrile]
86	>10	N#Cc1cnc(N2Cc3cn[nH]c3C2)nc1N1CC2C[C@H]1CN2c1cccc(F)c1 (stereo in doubt) [Compound 1-3, 2-(4,6-dihydropyrrolo[3,4-c]pyrazol-5(1H)-yl)-4-[(1S,4R)-5-(3-fluorophenyl)-2,5-diazabicyclo[2.2.1]hept-2-yl]pyrimidine-5-carbonitrile]
90	>10	Cn1cc(-c2ncc(C#N)c(N3CC4C[C@H]3CN4c3cccc(-n4cccc4)c3)n2)cn1 (stereo in doubt) [Compound 1-9, 2-(1-methyl-1H-pyrazol-4-yl)-4-{(1S,4R)-5-[3-(1H-pyrrol-1-yl)phenyl]-2,5-diazabicyclo[2.2.1]hept-2-yl}pyrimidine-5-carbonitrile]
130	>10	Cn1cc(-c2ncc(C#N)c(N3CC4C[C@H]3CN4c3cccc(C4CC4)c3)n2)cn1 (stereo in doubt) [Compound 1-11, 4-[(1S,4R)-5-(3-cyclopropylphenyl)-2,5-diazabicyclo[2.2.1]hept-2-yl]-2-(1-methyl-1H-pyrazol-4-yl)pyrimidine-5-carbonitrile]
97	>10	CNC(=O)c1cccc(N2C[C@@H]3CC2CN3c2nc(-c3cnn(C)c3)ncc2C#N)c1 (stereo in doubt) [Compound 1-13, 3-{(1R,4S)-5-[5-cyano-2-(1-methyl-1H-pyrazol-4-yl)pyrimidin-4-yl]-2,5-diazabicyclo[2.2.1]hept-2-yl}-N-methylbenzamide]
71	>10	COc1cccc(N2C[C@@H]3CC2CN3c2nc(-c3cnn(C)c3)ncc2C#N)c1 (stereo in doubt) [Compound 1-14, 4-[(1S,4R)-5-(3-methoxyphenyl)-2,5-diazabicyclo[2.2.1]hept-2-yl]-2-(1-methyl-1H-pyrazol-4-yl)pyrimidine-5-carbonitrile]
56	>10	N#Cc1cnc(-c2ccnc3[nH]ccc23)nc1N1C[C@@H]2CC1CN2c1cccc(F)c1 (stereo in doubt) [Compound 1-17, 4-[(1R,4S)-5-(3-fluorophenyl)-2,5-diazabicyclo[2.2.1]hept-2-yl]-2-(1H-pyrrolo[2,3-b]pyridin-4-yl)pyrimidine-5-carbonitrile]
920	8	N#Cc1cnc(-c2cnc3[nH]ccc3c2)nc1N1C[C@@H]2CC1CN2c1cccc(F)c1 (stereo in doubt) [Compound 1-18, 4-[(1R,4S)-5-(3-fluorophenyl)-2,5-diazabicyclo[2.2.1]hept-2-yl]-2-(1H-pyrrolo[2,3-b]pyridin-5-yl)pyrimidine-5-carbonitrile]
290	>10	Cc1cncc(-c2ncc(C#N)c(N3C[C@@H]4CC3CN4c3cccc(F)c3)n2)c1 (stereo in doubt) [Compound 1-19, 4-[(1R,4S)-5-(3-fluorophenyl)-2,5-diazabicyclo[2.2.1]hept-2-yl]-2-(5-methylpyridin-3-yl)pyrimidine-5-carbonitrile]
200	9	N#Cc1cnc(-c2cccc3[nH]ncc23)nc1N1C[C@@H]2CC1CN2c1cccc(F)c1 (stereo in doubt) [Compound 1-20, 4-[(1R,4S)-5-(3-fluorophenyl)-2,5-diazabicyclo[2.2.1]hept-2-yl]-2-(1H-indazol-4-yl)pyrimidine-5-carbonitrile]
